{
  "source": "patent US20180135134A1",
  "about": "“TARGETED SELECTION OF PATIENTS FOR TREATMENT WITH CORTISTATIN DERIVATIVES” (President and Fellows of Harvard College, priority 2015, published 2018)",
  "key": {"MKPL-1": {"system": "MKPL-1", "assay": "Cellular proliferation assay (CellTiter-Glo)", "conditions": "Homo sapiens, 240 h", "description": "(§1) All suspension cells were plated (96-well) in triplicate at 5,000-30,000 cells per well for testing (n=3). Viable cell number was estimated after 3, 7 and 10 days by counting viable cells from one vehicle well, generating a cell dilution series, transferring 20 ml per well in duplicate to a 384-well plate, and performing a linear regression to CellTiter-Glo (Promega) response (SPECTRAmax M3, Molecular Devices). Cells from all wells were also fourfold diluted in media and transferred in duplicate for CellTiter-Glo measurement. On days 3 and 7, an equal volume for all wells was split-back with fresh media and compound, such that the resulting cell density for the vehicle well matched the initial seeding density. For days 7 and 10, estimated cell number represents the split-adjusted theoretical cell number. […] For growth assays with inhibitors, n=3 for each concentration with two independent experiments."}, "K562": {"system": "K562", "assay": "Cellular proliferation assay (CellTiter-Glo)", "conditions": "Homo sapiens", "description": "as §1"}, "[1]": {"system": "RUNX1 target genes including CEBPA, IRF8 and NFE2", "assay": "Gene expression in CA-sensitive cell lines SET-2, MOLM-14 and MV4;11", "format": "cell-based, human", "conditions": "SET-2, MOLM-14 and MV4;11 cell lines", "procedure": "Leukemia cells were plated (12-well) in triplicate at 500,000-800,000 cells per ml and incubated in the presence of vehicle (0.1% DMSO) or CA (25 nM 3 h for K562, MOLM-14 and MV4;11; 10 nM 24 h for MOLM-14; 25 nM 4 h for SET-2, n=3 for each cell line). Cells were then washed twice with cold PBS, and snap frozen. RNA was isolated (RNeasy Plus Microkit, Qiagen or TRIzol, Life Technologies), processed, and, for K562, MOLM-14 and MV4;11, hybridized to the Human U133 Plus 2.0 microarray (Affymetrix). Microarrays were processed with Bioconductor packages affyQCReport for quality control and affy for background correction, summarization, and normalization using rma. […] SET-2 and HCT 116 gene expression was measured by RNA-seq. […] Reads were aligned in two passes, first with rnaStar (v.2.3.0e) then with BWA (v.0.7.5a) for remaining unmapped reads, both using default parameters. Mapped reads were merged and counted using HTSeq (v.0.5.3p3) with -s yes -m intersection-strict. […] Samples were run in a single lane on an Illumina HiSEQ 2000 sequencer with a single read flow cell using 1×50-bp reads and a 6-cycle index read. Reads were mapped to the hgl9 reference genome using Tophat2 v.2.0.6 with custom settings including the setting of—library-type fr—firstrand to appropriately account for the stranded nature of the protocol. […]"}, "CDK8/19": {"target": "T1, CDK8/19 (Homo sapiens, UniProt P49336)", "T1 construct": "purchased ProQinase GmbH", "assay": "Recombinant kinome-wide selectivity profiling (wildtype-profiler, ProQinase), 294 recombinant kinases", "format": "biochemical", "conditions": "600 nM cortistatin A; FIG. 7A", "from_the_text": "Recombinant kinome-wide selectivity profiling."}, "Kasumi-1": {"system": "Kasumi-1", "assay": "Cellular proliferation assay (CellTiter-Glo)", "conditions": "Homo sapiens", "description": "as §1"}, "MCF-7": {"system": "MCF-7", "assay": "Soft agar growth assay (Alamar Blue)", "conditions": "Breast cancer, ER-alpha positive, 100 nM cortistatin A", "description": "(§2) For the 62 cell lines 96 well suspension cell culture plates were prepared. 100 μL of the soft agar bottom layer (0.6% final concentration in complete medium) was poured and left to solidify. 50 μL of the soft agar top layer (0.4% final concentration) containing the corresponding cells and cell number were then added on top, solidified and incubated at 37° C., 10% CO2. After the soft agar had solidified, the test items were added at indicated final concentrations into the inner wells of the plate. Subsequently, the assay was incubated in cell culture incubators for 8 to 14 days. Finally, the assay was developed using Alamar Blue and upon 1-5 h of incubation at 37° C. fluorescence intensity was determined (excitation: 560 nm; emission: 590 nm). As low control, cells were treated with 1E-05M Staurosporine (6fold values). As high control, cells were treated with 0.1% DMSO (solvent control, 6 fold values).\n(§3) Raw data were converted into percent soft agar growth relative to high controls (solvent 0.1% DMSO) and low controls (1E-05M Staurosporine), which were set to 100% and 0%, respectively."}, "CDK8 W105M": {"target": "T2, CDK8 W105M (Homo sapiens, UniProt P49336, W105M)", "T2 construct": "host or cells: MOLM-14 cells, lentiviral transduction (pLVX-EF1alpha-IRES vectors)", "T2 sequence (P49336 whole entry W105M)": "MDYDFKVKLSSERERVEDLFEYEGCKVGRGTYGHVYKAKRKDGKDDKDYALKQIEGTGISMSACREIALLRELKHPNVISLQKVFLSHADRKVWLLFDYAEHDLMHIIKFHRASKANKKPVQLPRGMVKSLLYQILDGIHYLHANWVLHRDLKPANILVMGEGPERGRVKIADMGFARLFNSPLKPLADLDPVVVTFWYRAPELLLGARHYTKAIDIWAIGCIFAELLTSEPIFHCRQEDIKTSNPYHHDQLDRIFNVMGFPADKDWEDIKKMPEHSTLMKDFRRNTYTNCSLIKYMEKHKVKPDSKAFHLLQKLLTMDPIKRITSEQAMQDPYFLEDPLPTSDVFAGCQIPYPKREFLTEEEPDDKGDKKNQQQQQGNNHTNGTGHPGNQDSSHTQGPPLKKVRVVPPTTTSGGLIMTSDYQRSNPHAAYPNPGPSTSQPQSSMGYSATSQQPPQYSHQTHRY", "T2 sequence (P24863 whole entry partner)": "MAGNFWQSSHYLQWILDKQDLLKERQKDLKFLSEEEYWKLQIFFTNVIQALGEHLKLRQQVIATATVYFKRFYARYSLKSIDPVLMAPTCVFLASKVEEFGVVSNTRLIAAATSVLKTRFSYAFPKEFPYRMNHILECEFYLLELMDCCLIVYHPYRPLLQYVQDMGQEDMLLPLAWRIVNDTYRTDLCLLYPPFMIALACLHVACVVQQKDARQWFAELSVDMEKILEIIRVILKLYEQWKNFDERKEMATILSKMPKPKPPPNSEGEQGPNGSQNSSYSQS", "assay": "Drug resistant allele growth assay in MOLM-14 cells", "format": "cell-based", "conditions": "expression of CDK8 W105M; FIG. 9", "description": "5′-Flag-tagged CDK8 and CDK19 were cloned from pBabe.puro.CDK8.flag (Addgene 19758) and F-CDK8L (Addgene 24762) into pLVX-EF1alpha-IRES-mCherry and pLVX-EF1alpha-IRES-ZsGreen (Clontech) and transformed into E. coli (One Shot Stbl3, Invitrogen). Point mutations were introduced by whole-plasmid PCR (QuikChange II XL Site-Directed Mutagenesis Kit, Agilent). pLVX lentiviral vectors were co-transfected with psPASx and pMD2.G (Addgene) in 293T cells. After 48 h, viral supernatants were collected and passed through a 0.45 m filter (Millipore). For transductions, 24-well plates were coated with 500 μl of 20 μg ml RetroNectin (Clontech) at 4° C. overnight, blocked with 2% BSA for 30 min, washed with PBS, and 300-500 μl of viral supernatant was added. The plates were centrifuged (2,000 g, 1.5 h) and then set in an incubator. After 2 h, viral supernatant was removed and 500 μl per well of 200,000 cells per ml was added. After 1-3 days, the cells were expanded and isolated by FACS."}, "[2]": {"system": "RUNX1 target gene signatures", "assay": "Gene expression and gene set enrichment analysis (GSEA) in MOLM-14 cells", "format": "cell-based, human", "conditions": "3 h 25 nM CA", "from_the_text": "Kasumi-1 AML cells contain the RUNX1-RUNX1T1 fusion. A gene set was obtained that measured the genes in Kasumi-1 cells that increase in expression upon knockdown of RUNX1-RUNX1T1 (Ben-Ami, O. et al. Cell Reports 4, 1131-1143 (2013)). Using gene set enrichment analysis (Subramanian, A. et. al. Proc. Natl Acad. Sci. USA 102, 15545-15550 (2005)), this gene set, together with the Broad Molecular Signatures database (C2) was compared to genes differentially expressed in MOLM-14 cells upon treatment with 25 nM cortistatin A for 3 hrs (FIG. 2).\nLeukemia cells were plated (12-well) in triplicate at 500,000-800,000 cells per ml and incubated in the presence of vehicle (0.1% DMSO) or CA (25 nM 3 h for K562, MOLM-14 and MV4;11; 10 nM 24 h for MOLM-14; 25 nM 4 h for SET-2, n=3 for each cell line). Cells were then washed twice with cold PBS, and snap frozen. RNA was isolated (RNeasy Plus Microkit, Qiagen or TRIzol, Life Technologies), processed, and, for K562, MOLM-14 and MV4;11, hybridized to the Human U133 Plus 2.0 microarray (Affymetrix). Microarrays were processed with Bioconductor packages affyQCReport for quality control and affy for background correction, summarization, and normalization using rma. Probe sets present in at least 1 sample (based on affy mas5call) and for which the interquartile range was >log2(1.2) were retained for further analysis. The limma Bioconductor package was used for differential expression analysis of CA-treated versus DMSO control samples (Benjamini-Hochberg adjusted P<0.05). SET-2 and HCT 116 gene expression was measured by RNA-seq. SET-2 RNA-seq libraries were prepared and processed using the Ion Torrent workflow. Reads were aligned in two passes, first with rnaStar (v.2.3.0e) then with BWA (v.0.7.5a) for remaining unmapped reads, both using default parameters. Mapped reads were merged and counted using HTSeq (v.0.5.3p3) with -s yes -m intersection-strict. The Bioconductor package DESeq was used for DE analysis (FDR<0.05 and twofold change) and normalization. HCT116 cells were grown to approximately 80% confluence and were treated with either 100 nM CA or DMSO for 3 h (n=3). Cells were then washed twice with cold PBS and scraped into TRIzol reagent (Life Technologies). After collecting the RNA, it was further purified using an RNeasy mini kit (Qiagen) with an on-column DNase I digestion. Libraries for Illumina sequencing were generated via the Illumina TruSEQ stranded mRNA prep kit. Samples were run in a single lane on an Illumina HiSEQ 2000 sequencer with a single read flow cell using 1×50-bp reads and a 6-cycle index read. Reads were mapped to the hgl9 reference genome using Tophat2 v.2.0.6 with custom settings including the setting of—library-type fr—firstrand to appropriately account for the stranded nature of the protocol. HTSeq v.0.6.1 was used to obtain read counts over annotated genes and differentially expressed genes were called by DESeq v.1.10.1 with a padj value of less than 0.01. Counts were normalized for GSEA using the limma voom function. Expression data for the I-BET151 comparison were downloaded from ArrayExpress (https://www.ebi.ac.uk/arrayexpress, accession E-MTAB-774) and processed files used as is. Gene lists were submitted to the DAVID web server (http://david.abcc.ncifcrf.gov) for functional annotation. GSEA version 2.09 was carried out using signal-to-noise on natural values as the metric. Signatures included curated gene sets (C2, v.3) downloaded from the Broad's MSigDB as well as signatures curated from in-house and published data sets."}, "A498": {"system": "A498", "assay": "Soft agar growth assay (Alamar Blue)", "conditions": "clear cell renal cell carcinoma, Loss of function VHL mutation (VHL negative), 100 nM cortistatin A", "description": "as §2, §3"}, "UKE-1": {"system": "UKE-1", "assay": "Synergy assay with ruxolitinib (Chou-Talalay), UKE-1", "format": "cell-based, human", "conditions": "combination of cortistatin A with JAK1/2 inhibitor ruxolitinib, FIG. 5", "procedure": "SET-2 and UKE-1 cells were co-treated with constant ratios of ruxolitinib to CA, 1 to 1 or 10 to 1, in a 96-well growth assay format with a range of 2-fold dose dilutions of compounds. SET-2 and UKE-1 cells were also treated with ruxolitinib alone or CA alone in a 2-fold dilution series. The Chou-Talalay combination index values at 50% growth inhibition (Fa=0.5) were determined using CalcuSyn software (see Chou, T. C. Cancer Res. 2010 Jan. 15; 70(2):440-6) (FIG. 5)."}, "SET-2 cells": {"system": "SET-2 cells", "assay": "SET-2 differentiation assay (CD41/CD61 flow cytometry)", "conditions": "50 nM cortistatin A, 3 days; FIG. 3", "description": "Cell pellets were collected at 4° C., washed three times with cold PBS, and stained with anti-CD61-PE (ab91128) or anti-CD41-PerCP (ab134373) and analyzed by flow cytometry."}, "HEL": {"system": "HEL", "assay": "Cellular proliferation assay (CellTiter-Glo)", "conditions": "Homo sapiens", "description": "as §1"}, "ARH-77": {"system": "ARH-77", "assay": "Cellular proliferation assay (CellTiter-Glo)", "conditions": "Homo sapiens", "description": "as §1"}},
  "data": [
    {"smiles": "CN(C)[C@H]1C[C@@]23CC[C@@]4(O2)C(=CC[C@]2(C)[C@@H](c5ccc6ccncc6c5)CC[C@H]24)C=C3[C@@H](O)[C@@H]1O", "note": "[Cortistatin A, cortistatin A]", "values": [
      {"measurement": "GI50", "setting": "MKPL-1", "result": 1, "unit": "nM"},
      {"measurement": "GI50", "setting": "K562; K562", "result": "> 1000", "unit": "nM"},
      {"measurement": "GI50", "setting": "K562; K562, 240 h", "result": "> 1000", "unit": "nM"},
      {"measurement": "expression of RUNX1 target genes", "setting": "[1]", "result": "upregulated RUNX1 target genes"},
      {"measurement": "kinase selectivity (kinase activity percent remaining, 294 recombinant kinases)", "setting": "CDK8/19", "result": "selectively inhibits CDK8/19"},
      {"measurement": "GI50", "setting": "Kasumi-1", "result": 95, "unit": "nM"},
      {"measurement": "% growth rel. to vehicle", "setting": "MCF-7", "result": 49, "unit": "%"},
      {"measurement": "growth of MOLM-14 cells expressing drug resistant allele", "setting": "CDK8 W105M", "result": "able to proliferate in the presence of cortistatin A"},
      {"measurement": "NES", "setting": "[2]; signature: Downregulated by RUNX1-RUNX1T1 in CD34+ cord blood cells", "result": 2.50},
      {"measurement": "NES", "setting": "[2]; signature: Downregulated by RUNX1 knockdown in Kasumi-1 cells", "result": 2.21},
      {"measurement": "NES", "setting": "[2]; signature: Downregulated by RUNX1 knowndown in Jurkat cells", "result": 2.00},
      {"measurement": "NES", "setting": "[2]; signature: Upregulated by C/EBPα in Burkitt lymphoma cells", "result": 2.56},
      {"measurement": "NES", "setting": "[2]; signature: Upregulated by C/EBPα in K562 cells", "result": 2.22},
      {"measurement": "NES", "setting": "[2]; signature: Upregulated by C/EBPα in KCL22 cells", "result": 2.22},
      {"measurement": "NES", "setting": "[2]; signature: Upregulated by RUNX1-RUNX1T1 knockdown in Kasumi-1 cells", "result": 2.78},
      {"measurement": "% growth rel. to vehicle", "setting": "A498", "result": 51, "unit": "%"},
      {"measurement": "combination index (synergy) for inhibition of proliferation", "setting": "UKE-1", "result": "synergizes"},
      {"measurement": "differentiation of SET-2 cells (percent of cells with megakaryocytic markers CD41 and CD61)", "setting": "SET-2 cells", "result": "induces differentiation of SET-2 cells"},
      {"measurement": "GI50", "setting": "HEL", "result": "> 1000", "unit": "nM"},
      {"measurement": "GI50", "setting": "HEL; 240 h", "result": "> 1000", "unit": "nM"},
      {"measurement": "GI50", "setting": "ARH-77", "result": 16, "unit": "nM"}
    ]}
  ]
}
